Tests used:
souris [1] = test: Interaction with barbital (sleep duration), mouse; format: in vivo; settings: barbital 220 mg/kg I.P. half an hour after product, plus forte dose utilisée (64 mg/kg)
souris [2] = test: Intergroup aggressiveness, mouse; format: in vivo; settings: half an hour after I.P., 10 minutes, plus forte dose utilisée (64 mg/kg)
Description: Après avoir séjourné pendant 3 semaines dans chacune des moitiés d'une cage séparées par une cloison opaque, des groupes de 3 souris reçoivent le CRL 41 190. Une demi-heure plus tard, les deux groupes d'une même cage sont réunis par retrait de la cloison et on note le nombre de combats qui surviennent en 10 minutes.

souris [3] = test: Behavioural despair (forced immersion), mouse; format: in vivo; settings: half an hour after I.P., plus forte dose utilisée (64 mg/kg)
Source text: On note la durée totale d'immobilité entre la 2ème et la 6ème minutes suivant l'immersion.

souris mâle [4] = settings: mouse, in vivo, ip
Description: (§1) On a résumé ci-après les résultats des essais neuropsychopharmacologiques qui ont été entrepris avec les produits préférés selon l'invention, le CRL 41 190 (Ex 1) et le CRL 41 214 (Ex 3). Dans ce résumé, les deux produits à tester mis en solution dans de l'eau distillée ont été administrés, sauf indiction contraire, par voie intrapéritonéale sous un volume de 20 ml/kg chez la souris mâle et sous un volume de 5 ml/kg chez le rat mâle. […]
La DL-0 (dose maximale non mortelle) du CRL 41 190 est supérieure à 128 mg/kg par voie I.P. chez la souris mâle, et la DL-30 est de l'ordre de 256 mg/kg.
Par voie I.P. chez la souris mâle, la DL-0 est supérieure à 256 mg/kg.

souris [5] = test: Asphyxic anoxia (gallamine triethiodide), mouse; format: in vivo; settings: product I.P. half an hour before triiodoéthylate de gallamine 32 mg/kg I.P.
rat [6] = test: Interaction with apomorphine, rat; format: in vivo; settings: product I.P. 0,50 h before s.c. 0,5 mg/kg apomorphine
souris [7] = test: Interaction with reserpine (hypothermia, ptosis), mouse; format: in vivo
Description: Quatre heures après l'injection intrapéritonéale de 2,5 mg/kg de réserpine, des lots de 12 souris reçoivent le CRL 41 190. On étudie l'influence du produit à tester sur l'hypothermie et le ptôsis réserpiniques.

l'homme = test: Clinical treatment of depression, oral administration; format: in vivo
souris [8] = test: Interaction with apomorphine, mouse; format: in vivo; settings: product I.P. 0,50 h before s.c. apomorphine
Description: • 1°) chez la souris • Des lots de 6 souris reçoivent le produit à étudier 0,50 h avant une injection sous-cutanée de 1 mg/kg ou 16 mg/kg d'apomorphine.

souris [9] = test: Spontaneous motility (actimeter), mouse; format: in vivo; settings: souris, 0,5 h after I.P., recorded 30 minutes; plus forte dose utilisée (64 mg/kg)
souris [10] = test: Global behaviour and reactivities, mouse; format: in vivo; settings: I.P.
Description: as §1
(§2) Des lots de trois animaux sont observés avant puis 0,25 h, 0,5, h, 1 h, 2 h, 3 h et 24 h après administration de CRL 41 190.

rats = test: Interaction with amphetamine (stereotypies), rat; format: in vivo; settings: amphétamine 2 mg/kg I.P. half an hour after product, doses de 8 et 32 mg/kg
Description: L'amphétamine (2 mg/kg) est injectée par voie intrapéritonéale à des lots de 6 rats, une demi -heure après l'administration de CRL 41 190.

rat [11] = test: Global behaviour and reactivities, rat; format: in vivo; settings: I.P.
Description: as §1, §2

souris [12] = test: Four-plate test, traction and electroshock, mouse; format: in vivo
Description: Le test est pratiqué sur des lots de 10 souris 0,50 h après l'administration du produit à étudier.

souris mâle [13] = test: Complementary neuropsychopharmacological tests by gastric route, mouse; format: in vivo; settings: voie gastrique, 20 ml/kg in distilled water
Description: Des essais complémentaires ont été entrepris, le CRL 41 190 en solution dans de l'eau distillée étant administré par voie gastrique sous un volume de 20 ml/kg chez la souris mâle.

souris [14] = test: Motility reduced by habituation to the enclosure, mouse; format: in vivo; settings: I.P., after 18 heures in actimeter
souris [15] = test: Interaction with oxotremorine, mouse; format: in vivo
souris [16] = settings: half an hour after I.P., dépression de 600 mmHg
[17] = souris, 0,50 h after I.P. administration
[18] = oxotrémorine 0,5 mg/kg I.P., dose de 64 mg/kg

CC(C)(C)NCC(SCC(N)=O)c1ccccc1 (racemic) [CRL 41 190, chlorhydratede [α-(tertiobutylamino-méthyl)-benzyl]-thioacétamide]
durée du sommeil barbiturique (souris [1]): diminue la durée du sommeil barbiturique
nombre de combats (souris [2]): augmente modérément le nombre de combats
durée de l'immobilité de la souris placée en immersion forcée (souris [3]): diminue nettement la durée de l'immobilité de la souris placée en immersion forcée
DL-0 (dose maximale non mortelle) (souris mâle [4]): > 128 mg/kg
DL-30 (souris mâle [4]): ~256 mg/kg
délai d'apparition des convulsions et de la mort consécutives à une anoxie asphyxique (souris [5]): ne modifie pas le délai d'apparition des convulsions et de la mort
stéréotypies induites par l'apomorphine (rat [6]): laisse inchangées les stéréotypies induites par l'apomorphine
hypothermie réserpinique (souris [7]; product 4 h after réserpine 2,5 mg/kg I.P., dès la dose de 4 mg/kg): antagonise l'hypothermie réserpinique
ptôsis réserpinique (souris [7]; réserpine 2,5 mg/kg I.P., 16 mg/kg et 64 mg/kg, from half an hour after administration): antagonise faiblement le ptôsis réserpinique
hypothermie réserpinique (souris [7]; réserpine 2,5 mg/kg I.P., deux plus fortes doses (16 mg/kg et 64 mg/kg)): Cet antagonisme est très net
traitement des dépressions chez l'homme (l'homme; administration orale, gélules ou comprimés 25 mg ou 50 mg, 1 à 2 prises par jour, deux à trois semaines): bons résultats
propriétés antidépressives chez les personnes agées (l'homme; clinical, oral): se manifestaient de façon très bénéfique chez les personnes agées
comportements de verticalisation et stéréotypies (apomorphine) (souris [8]): ne sont pratiquement pas modifiés
hypothermie induite par 16 mg/kg d'apomorphine (souris [8]; dès la dose de 1 mg/kg): antagonise dès la dose de 1 mg/kg l'hypothermie induite par 16 mg/kg d'apomorphine
hypothermie induite par 1 mg/kg d'apomorphine (souris [8]; plus forte dose utilisée (64 mg/k)): s'oppose à l'hypothermie induite par 1 mg/kg d'apomorphine
activité motrice spontanée (souris [9]): ne modifie pratiquement pas l'activité motrice spontanée de la souris
comportement global et réactivités (souris [10]; dose de 1 mg/kg, observed 0,25 h to 24 h): aùcune modification nette du comportement et et des réactivités
comportement global et réactivités (souris [10]; dose de 64 mg/kg): une augmentation de la réaction de peur pendant 1 h et de la réactivité au toucher de 0,5 h à 1 h, une sédation, et, une mydriase faible pendant 1 h
comportement global et réactivités (souris [10]; doses de 4 et 16 mg/kg): une augmentation de la réaction de peur, d'υne part, et une augmentation de la réactivité au toucher pendant 0,5 h
durée des stéréotypies amphétaminiques (rats): augmente nettement la durée des stéréotypies amphétaminiques
comportement global et réactivités (rat [11]; dose de 32 mg/kg): une mydriase pendant 1 h
comportement global et réactivités (rat [11]; doses de 0,5 mg/kg à 8 mg/kg): un comportement, des réactivités, une variation de la température rectale, et une variation du diamètre pupillaire sensiblement comparables à ceux du lot témoin
effets convulsivants de l'électrochoc (souris [12]; [17]): ne modifie pas les effets convulsivants
incapacité motrice (traction) (souris [12]; [17]): ne provoque pas d'incapacité motrice majeure
nombre de passages punis (test des quatre plaques) (souris [12]; [17]): n'entraîne pas d'augmentation du nombre de passages punis
effets létaux de l'électrochoc (souris [12]; souris, I.P., dose de 64 mg/kg): aggrave, à la dose de 64 mg/kg, les effets létaux de l'électrochoc
overall CNS profile by gastric route (souris mâle [13]): agit essentiellement en tant qu'antidépresseur avec, à fortes doses, une composante éveillante et stimulante très modérée
reprise d'activité motrice chez la souris habituée à son enceinte (souris [14]): n'entraîne pas de reprise d'activité motrice chez la souris habituée à son enceinte
signes de stimulation cholinergique périphérique dûs à l'oxotrémorine (souris [15]; oxotrémorine 0,5 mg/kg I.P., aux autres doses (below 64 mg/kg)): ne modifie pratiquement pas les signes de stimulation cholinergique péripherique dûs à l'oxotrémorine
intensité des tremblements dûs à l'oxotrémorine (souris [15]; [18]): diminue faiblement l'intensité des tremlblements dûs à l'oxotrémorine
salivation (symptômes cholinergiques périphériques) (souris [15]; [18]): diminue faiblement la salivation entre les 1,5 h et 2 h qui suivent son administration
hypothermie induite par l'oxotrémorine (souris [15]; oxotrémorine 0,5 mg/kg I.P., doses de 4 mg/kg, 16 mg/kg et surtout 64 mg/kg): Cet antagonisme est net
hypothermie induite par l'oxotrémorine (souris [15]; product half an hour before oxotrémorine 0,5 mg/kg I.P., dès la dose de 1 mg/kg): s'oppose à l'hypothermie induite par l'oxotrémorine
récupération motrice après anoxie hypobare aigue (souris [16]): n'entraîne pas d'amélioration de la récupération motrice

— patent EP0158545A1, “[Alpha-(alkylaminomethyl)-benzylthio]-acetic-acid derivatives, process for their preparation and their therapeutic use” (priority 1984, dated 1985)
